Columns and labels:
[1] = system: full length SMN2 minigene mRNA containing SMN2 exon 7 (SMN2-A minigene); test: SMN2 minigene mRNA splicing RT-qPCR assay in cultured cells; assay type: cell-based, human; conditions: Homo sapiens, HEK293-H; HEK293H cells stably transfected with SMN2-A minigene, 24 hours, 7-point concentration curve; concentration giving 1.5-fold SMN2 full length mRNA vs vehicle; read-out: EC1.5x for production of full length SMN2 mRNA
Protocol: SMN2 Minigene mRNA Splicing RT-qPCR Assay in Cultured Cells
The reverse transcription-quantitative PCR-based (RT-qPCR) assay is used to quantify the level of the full length SMN2 minigene mRNA containing SMN2 exon 7 in a HEK293H cell line stably transfected with said minigene and treated with a test compound.
Protocol. HEK293H cells stably transfected with the SMN2-A minigene construct described above (10,000 cells/well) are seeded in 200 μL of cell culture medium (DMEM plus 10% FBS, with 200 μg/mL hygromycin) in 96-well flat-bottom plates and the plate is immediately swirled to ensure proper dispersal of cells, forming an even monolayer of cells. Cells are allowed to attach for at least 4-6 hours. Test compounds are serially diluted 3.16-fold in 100% DMSO to generate a 7-point concentration curve. A solution of test compound (1 μL, 200× in DMSO) is added to each cell-containing well and the plate is incubated for 24 hours in a cell culture incubator (37° C., 5% CO2, 100% relative humidity). Two replicates are prepared for each test compound concentration. The cells are then lysed in Cells-To-Ct lysis buffer and the lysate is stored at −80° C.
Primer SMN Forward A (SEQ ID NO. 1) hybridizes to a nucleotide sequence in exon 7 (nucleotide 22 to nucleotide 40), primer SMN Reverse A (SEQ ID NO. 2) hybridizes to a nucleotide sequence in the coding sequence of Firefly luciferase, SMN Probe A (SEQ ID NO. 3) hybridizes to a nucleotide sequence in exon 7 (nucleotide 50 to nucleotide 54) and exon 8 (nucleotide 1 to nucleotide 21). The combination of these three oligonucleotides detects only SMN1 or SMN2 minigenes (RT-qPCR) and will not detect endogenous SMN1 or SMN2 genes.
The SMN forward and reverse primers are used at final concentrations of 0.4 μM. The SMN probe is used at a final concentration of 0.15 μM. The GAPDH primers are used at final concentrations of 0.2 μM and the probe at 0.15 μM.
The SMN2-minigene GAPDH mix (15 μL total volume) is prepared by combining 7.5 μL of 2×RT-PCR buffer, 0.4 μL of 25×RT-PCR enzyme mix, 0.75 μL of 20×GAPDH primer-probe mix, 4.0075 μL of water, 2 μL of 10-fold diluted cell lysate, 0.06 μL of 100 μM SMN forward primer, 0.06 μL of 100 μM SMN reverse primer, and 0.225 μL of 100 μM SMN probe.
PCR is carried out at the following temperatures for the indicated time: Step 1: 48° C. (15 min); Step 2: 95° C. (10 min); Step 3: 95° C. (15 sec); Step 4: 60° C. (1 min); then repeat Steps 3 and 4 for a total of 40 cycles.
Each reaction mixture contains both SMN2-A minigene and GAPDH primers/probe sets (multiplex design), allowing simultaneous measurement of the levels of two transcripts.
Two SMN spliced products are generated from the SMN2 minigene. The first spliced product containing exon 7, corresponding to SMN2 full length mRNA, is referred to herein using the term “SMN2 minigene FL.” The second spliced product lacking exon 7 is referred to herein using the term “SMN2 minigene Δ7.”
The increase of SMN2 minigene FL mRNA relative to that in cells treated with vehicle control is determined from real-time PCR data using a modified ΔΔCt method (as described in Livak and Schmittgen, Methods, 2001, 25:402-8). The amplification efficiency (E) is calculated from the slope of the amplification curve for SMN2 minigene FL and GAPDH mRNA individually. The abundance of SMN2 minigene FL and GAPDH mRNA are then calculated as (1+E)^−Ct, where Ct is the threshold value for each amplicon. The abundance of SMN2 minigene FL is normalized to GAPDH abundance. The normalized SMN2 minigene FL abundance from test compound-treated samples is then divided by normalized SMN2 minigene FL abundance from vehicle-treated cells to determine the level of SMN2 FL mRNA relative to vehicle control. […]

[2] = system: Smn protein; test: Smn protein assay (Smn HTRF) in cultured cells; assay type: cell-based, human; conditions: Homo sapiens, Fibroblast, GM03813 SMA Type 1 patient fibroblasts, 48 hours, HTRF; for maximal fold induction: 7-point concentration data, relative to vehicle, read-out: maximum fold (Fold) increase of Smn protein; for EC (1.5-fold): concentration producing 1.5 times Smn protein vs DMSO vehicle, read-out: EC1.5x for Smn protein expression
Protocol: Smn Protein Assay in Cultured Cells
The Smn HTRF (homogeneous time resolved fluorescence) assay is used to quantify the level of Smn protein in SMA patient fibroblast cells treated with test compounds.
Protocol. Cells are thawed and cultured in DMEM-10% FBS for 72 hours. Cells are trypsinized, counted and re-suspended to a concentration of 25,000 cells/mL in DMEM-10% FBS. The cell suspension is plated at 5,000 cells per well in a 96 well microtiter plate and incubated for 3 to 5 hours. […] Test compounds are serially diluted 3.16-fold in 100% DMSO to generate a 7-point concentration curve. 1 μL of test compound solution is transferred to cell-containing wells and cells are incubated for 48 hours in a cell culture incubator (37° C., 5% CO2, 100% relateive humidity). Triplicate samples are set up for each test compound concentration. After 48 hours, the supernatant is removed from the wells and 25 μL of the RIPA lysis buffer, containing protease inhibitors, is added to the wells and incubated with shaking at room temperature for 1 hour. 25 μL of the diluent is added and then 35 μL of the resulting lysate is transferred to a 384-well plate, where each well contains 5 μL of the antibody solution (1:100 dilution of anti-SMN d2 and anti-SMN kryptate in SMN reconstitution buffer). The plate is centrifuged for 1 minute to bring the solution to the bottom of the wells, then incubated overnight at room temperature. Fluorescence for each well of the plate at 665 nm and 620 nm is measured on an EnVision multilabel plate reader (Perkin-Elmer).
The normalized fluorescence signal is calculated for each sample, Blank and vehicle control well by dividing the signal at 665 nm by the signal at 620 nm. Normalizing the signal accounts for possible fluorescence quenching due to the matrix effect of the lysate. The AF value (a measurement of Smn protein abundance as a percent value) for each sample well is calculated by subtracting the normalized average fluorescence for the Blank control wells from the normalized fluorescence for each sample well, then dividing this difference by the normalized average fluorescence for the Blank control wells and multiplying the resulting value by 100. The ΔF value for each sample well represents the Smn protein abundance from test compound-treated samples. The ΔF value for each sample well is divided by the ΔF value for the vehicle control wells to calculate the fold increase in Smn protein abundance relative to the vehicle control.
For compounds of Formula (I) or a form thereof disclosed herein, Table 9 provides the EC1.5x for Smn protein expression that was obtained from the 7-point concentration data generated for each test compound according to the procedure of Biological Example 7. The term “EC1.5x for Smn protein expression” is defined as that concentration of test compound that is effective in producing 1.5 times the amount of Smn protein in an SMA patient fibroblast cell compared to the amount produced from the DMSO vehicle control. An EC1.5x for Smn protein expression between >3 μM and ≦10 μM is indicated by one star (*), an EC1.5x between >1 μM and ≦3 μM is indicated by two stars (**), an EC1.5x between >0.3 μM and ≦1 μM is indicated by three stars (***) and an EC1.5x≦0.3 μM is indicated by four stars (****).
For compounds of Formula (I) or a form thereof disclosed herein, Table 10 provides the maximum fold (Fold) increase of Smn protein that was obtained from the 7-point concentration data generated for each test compound according to the procedure of Biological Example 7. A maximum fold increase ≦1.2 is indicated by one star (*), a fold increase between >1.2 and ≦1.35 is indicated by two stars (**), a fold increase between >1.35 and ≦1.5 is indicated by three stars (***), a fold increase between >1.5 and ≦1.65 is indicated by four stars (****) and a fold increase >1.65 is indicated by five stars (*****).

| SMILES | melting point [°C] | EC (1.5-fold) [1] [µM] | maximal fold induction [2] | EC (1.5-fold) [2] [µM] |
| --- | --- | --- | --- | --- |
| O=c1cc(-c2cccnc2)oc2ccc(N3CCCNCC3)cc12 [Cpd 6, 6-(1,4-diazepan-1-yl)-2-(pyridin-3-yl)-4H-chromen-4-one] | 162 to 164 | 3 to 30 | ≤ 1.2 |  |
| CCN1CCN(c2ccc3oc(-c4cccnc4)cc(=O)c3c2)CC1 [Cpd 3, 6-(4-ethylpiperazin-1-yl)-2-(pyridin-3-yl)-4H-chromen-4-one] | 140 to 142 | 3 to 30 | ≤ 1.2 |  |
| CN1CCN(c2ccc3oc(-c4nc5ccccc5s4)cc(=O)c3c2)CC1 [Cpd 35, 2-(1,3-benzothiazol-2-yl)-6-(4-methylpiperazin-1-yl)-4H-chromen-4-one] | 215 to 220 | 1 to 3 | 1.2 to 1.35 |  |
| COc1ccc(-c2cc(=O)c3cc(N4CCN[C@@H](C)C4)ccc3o2)cc1C [Cpd 52, 2-(4-methoxy-3-methylphenyl)-6-[(3S)-3-methylpiperazin-1-yl]-4H-chromen-4-one] | 174 to 176 | 0.1 to 0.3 | 1.35 to 1.5 |  |
| Cc1ccn2cc(-c3cc(=O)c4cc(N5CCN[C@H](C)C5)ccc4o3)nc2c1 [Cpd 29, 2-(7-methylimidazo[1,2-a]pyridin-2-yl)-6-[(3R)-3-methylpiperazin-1-yl]-4H-chromen-4-one] | 150 to 155 | 3 to 30 | 1.35 to 1.5 | 3 to 10 |
| COc1ccc(-c2cc(=O)c3cc(N4C[C@@H](C)N[C@@H](C)C4)ccc3o2)cc1C [Cpd 53, 6-[(3R,5S)-3,5-dimethylpiperazin-1-yl]-2-(4-methoxy-3-methylphenyl)-4H-chromen-4-one] | 186 to 188 | 0.3 to 1 | 1.2 to 1.35 |  |
| C[C@@H]1CN(c2ccc3oc(-c4nc5ccccc5s4)cc(=O)c3c2)C[C@H](C)N1 [Cpd 34, 2-(1,3-benzothiazol-2-yl)-6-[(3R,5S)-3,5-dimethylpiperazin-1-yl]-4H-chromen-4-one] | 200 to 202 | 0.3 to 1 | 1.35 to 1.5 |  |
| COc1ccc(-c2cc(=O)c3cc(N4CCN[C@@H](C)C4)ccc3o2)cn1 [Cpd 56, 2-(6-methoxypyridin-3-yl)-6-[(3S)-3-methylpiperazin-1-yl]-4H-chromen-4-one] | 196 to 200 | 0.3 to 1 | 1.35 to 1.5 |  |

Continued, in another order:

| melting point [°C] | SMILES | EC (1.5-fold) [1] [µM] | maximal fold induction [2] | EC (1.5-fold) [2] [µM] |
| --- | --- | --- | --- | --- |
| 198 to 200 | COc1ccc(-c2cc(=O)c3cc(N4CCN[C@H](C)C4)ccc3o2)cn1 [Cpd 57, 2-(6-methoxypyridin-3-yl)-6-[(3R)-3-methylpiperazin-1-yl]-4H-chromen-4-one] | 0.3 to 1 | 1.2 to 1.35 |  |
| 182 to 184 | COc1ccc(-c2cc(=O)c3cc(N4CCN[C@@H](C)C4)ccc3o2)cc1C(F)(F)F [Cpd 71, 2-[4-methoxy-3-(trifluoromethyl)phenyl]-6-[(3S)-3-methylpiperazin-1-yl]-4H-chromen-4-one] | 0.1 to 0.3 | 1.35 to 1.5 | 3 to 10 |
| 166 to 170 | COc1ccc(-c2cc(=O)c3cc(N4CCNCC4)ccc3o2)cc1 [Cpd 62, 2-(4-methoxyphenyl)-6-(piperazin-1-yl)-4H-chromen-4-one] | 0.1 to 0.3 | 1.2 to 1.35 |  |
| 174 to 176 | O=c1cc(-c2cccc(C(F)(F)F)c2)oc2ccc(N3CCNCC3)cc12 [Cpd 67, 6-(piperazin-1-yl)-2-[3-(trifluoromethyl)phenyl]-4H-chromen-4-one] | 0.1 to 0.3 | 1.5 to 1.65 | 0.3 to 1 |
| 170 to 172 | COc1ccc(-c2cc(=O)c3cc(N4CCN[C@H](C)C4)ccc3o2)cc1Cl [Cpd 61, 2-(3-chloro-4-methoxyphenyl)-6-[(3R)-3-methylpiperazin-1-yl]-4H-chromen-4-one] | 0.1 to 0.3 | 1.2 to 1.35 |  |
| 172 to 174 | COc1ccc(-c2cc(=O)c3cc(N4CCN[C@@H](C)C4)ccc3o2)cc1Cl [Cpd 59, 2-(3-chloro-4-methoxyphenyl)-6-[(3S)-3-methylpiperazin-1-yl]-4H-chromen-4-one] | ≤ 0.1 | 1.5 to 1.65 | ≤ 0.3 |

— US9914722B2, “Compounds for treating spinal muscular atrophy” (PTC Therapeutics Inc., priority 2012, dated 2018)
